The values below come from ChEMBL document CHEMBL5727772, “Substituted 3,4,5,6,8,10,14,14a-octahydro-2h-2,6-methanopyrido[1′,2′:4,5]pyrazino[2,1-b][1,3]oxazocines and methods for treating viral infections” (2020).

The nature of this assay: 24 hours prior to assay, media containing 5 mM sodium butyrate were added to MDCKII cells in flasks, and cells were grown to 80-90% confluence. On assay day, cells were trypsinized and resuspended in Krebs-Henseleit Buffer (KHB), pH 7.4 at 5×10^6 […] cells/mL. Cells were preincubated for 15 min in assay plate before addition of test compound or substrate.Test compounds were serially diluted in DMSO and then spiked (2 μL) into in 0.4 mL KHB buffer containing wild-type or OCT2-transfected cells and incubated for 10 minutes. Assay was initiated with the addition of 0.1 mL of 100 μM 14C-TEA in KHB buffer (20 μM final concentration after mixing). The concentration of TEA is based on the Km. After 10 minutes of incubation, the assay mixture was quenched with addition of 0.5 mL of ice-cold 1×PBS buffer. Samples were then centrifuged at 1000 rpm for 5 min and supernatants were removed. Wash steps were repeated four times with ice-cold PBS. Finally, the cell pellets were lysed with 0.2N NaOH and let sit at room temperature for at least 30 min to ensure complete lysis. Conditions: MDCK-II.
As usually defined, the IC50 is the point on the concentration scale where inhibition reaches its midpoint. As for `O=C(NCc1cc(F)ccc1F)c1cn2c(cc1=O)C(=O)N1C3CCC(C3)C1C2` (stereo not drawn), the IC50 came to 450 nM.
As for `C[C@@H](NC(=O)c1cn2c(c(O)c1=O)C(=O)N1C(C2)O[C@@H]2CC[C@@H]1C2)c1ccc(F)cc1F` (stereo partly drawn), the 50% inhibitory concentration (IC50) amounted to 610 nM.
With `O=C(NCc1c(F)cc(F)cc1F)c1cn2c(c(O)c1=O)C(=O)N1C3CCC(C3)O[C@H]1C2` (stereo partly drawn), the IC50 stood at 137 nM.
